These results are taken from patent US20130289047A1, “HETEROARYLTHIO DERIVATIVES AND ANALOGUES” (EPIOMED THERAPEUTICS, INC., priority 2010, published 2013).

For one test, the target named is T1, 5HT1A receptor (Homo sapiens, UniProt P08908).
T1 sequence (P08908 1-422): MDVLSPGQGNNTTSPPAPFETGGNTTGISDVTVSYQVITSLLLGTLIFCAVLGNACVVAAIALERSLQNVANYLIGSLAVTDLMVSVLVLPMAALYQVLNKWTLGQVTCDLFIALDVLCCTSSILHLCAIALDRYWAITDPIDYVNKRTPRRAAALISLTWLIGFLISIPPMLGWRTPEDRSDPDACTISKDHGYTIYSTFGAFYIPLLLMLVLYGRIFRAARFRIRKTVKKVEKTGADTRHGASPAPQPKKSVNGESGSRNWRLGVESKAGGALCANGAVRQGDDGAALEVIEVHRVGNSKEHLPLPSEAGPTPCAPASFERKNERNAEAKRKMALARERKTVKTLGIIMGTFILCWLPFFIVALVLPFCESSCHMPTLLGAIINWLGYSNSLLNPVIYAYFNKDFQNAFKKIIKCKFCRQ
Description: Competitive receptor binding, 5HT1A (radiolabeled OH-DPAT). Conditions: for inhibition at 0.1 µM: 100 nM, read-out: Percent inhibition of receptor binding at 100 nM, 5HT1A Receptor Binding. How it is done: (§1) A set of compounds were tested for their ability to inhibit binding of a binding ligand to the 5HT1A, 5HT1D, and 5HT7 receptors in a competitive assay. The tested compounds were placed in the assay with either radiolabeled OH-DPAT (which binds the 5HT1A receptor), radiolabeled serotonin (which binds the 5HT1D receptor), or radiolabeled LSD (lysergic acid diethylamide, which binds the 5HT7 receptor).

In another test the target is 5HT1D receptor (Homo sapiens, UniProt P28221). Description: Competitive receptor binding, 5HT1D (radiolabeled serotonin). To be noted: for inhibition at 0.1 µM: 100 nM, read-out: Percent inhibition of receptor binding at 100 nM, 5HT1D Receptor Binding. How it is done: as §1
Chain of 5HT1D receptor (P28221 whole entry): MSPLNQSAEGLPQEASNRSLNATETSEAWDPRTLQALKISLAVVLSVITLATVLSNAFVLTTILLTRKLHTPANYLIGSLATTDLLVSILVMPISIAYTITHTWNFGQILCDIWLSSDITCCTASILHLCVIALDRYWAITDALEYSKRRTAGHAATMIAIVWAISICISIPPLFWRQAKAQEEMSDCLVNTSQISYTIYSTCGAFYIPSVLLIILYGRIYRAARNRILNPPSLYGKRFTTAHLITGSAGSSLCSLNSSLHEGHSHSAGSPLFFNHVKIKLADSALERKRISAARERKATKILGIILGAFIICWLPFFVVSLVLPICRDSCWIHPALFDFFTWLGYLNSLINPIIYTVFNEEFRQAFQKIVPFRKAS
For a further test, the target named is 5HT7 receptor (Homo sapiens, UniProt P34969). Description: Competitive receptor binding, 5HT7 (radiolabeled LSD). Conditions: for inhibition at 0.1 µM: 100 nM, read-out: Percent inhibition of receptor binding at 100 nM, 5HT7 Receptor Binding. How it is done:
as §1

Test [1] relates to C57 male mice. Description: Condition Avoidance Responding (CAR, active avoidance) model, antipsychotic activity. The test is classed as in vivo. Conditions: 10 mg/kg subcutaneously 30 minutes before test session; C57 male mice tested 24 hours after training; FIG. 1. On the procedure: The Condition Avoidance Responding (CAR, active avoidance) model is used as a test for antipsychotic activity. The disruption of avoidance (increased latency) without disruption of escape (extrapyramidal motor function) is a clinical predictor of compounds with antipsychotic activity. The compound of example 10 above (1-[3-(5-Pyridin-4-yl-[1,3,4]oxadiazol-2-ylsulfanyl)propyl]-4-(3-chlorophenyl)piperazine) was evaluated in this model as follows.
(§2) Training of animals (mice) consisted of 20 trials with variable inter-trial intervals (trained to 80% Avoidance Criteria). After a one-minute acclimation period, the house light and an acoustic 90 dB tone (conditioned stimuli) were presented. A response (crossing to a dark compartment) within 5 seconds ended the trial and the trial was recorded as avoidance response (CAR). […] To avoid shock, animals learn to move from the lighted side of the chamber to the dark side when the cue is presented (avoidance) or moved when the shock is administered (escape). Vehicle or test compounds were administered subcutaneously 30 minutes before the test session.
(§3) C57 male mice were tested 24 hours after being trained as described above.

Test [2] has as its system C57 male mice. Description: Condition Avoidance Responding (CAR, active avoidance) model, memory. It is filed as in vivo. Conditions: 10 mg/kg subcutaneously 30 minutes before test session; C57 male mice tested 24 hours after training; FIG. 2.
Text: The Condition Avoidance Responding (CAR, active avoidance) model, although primarily a test for detecting anti-psychotic activity, includes an element of training and learning (acquisition of memory), and thus can also be used as a model for testing a compound's effects on learning (acquisition of information) and memory (retention of information). A decrease in the latency of an animal's response indicates an enhancement of an animal's memory of the stimulus. The compound of example 12 above (1-[3-(1-Phenyl-1H-tetrazol-5-ylsulfanyl)propyl]-4-(3-chlorophenyl)piperazine) was evaluated in this model as follows.
as §2, §3

Chain of 5HT7 receptor (P34969 whole entry): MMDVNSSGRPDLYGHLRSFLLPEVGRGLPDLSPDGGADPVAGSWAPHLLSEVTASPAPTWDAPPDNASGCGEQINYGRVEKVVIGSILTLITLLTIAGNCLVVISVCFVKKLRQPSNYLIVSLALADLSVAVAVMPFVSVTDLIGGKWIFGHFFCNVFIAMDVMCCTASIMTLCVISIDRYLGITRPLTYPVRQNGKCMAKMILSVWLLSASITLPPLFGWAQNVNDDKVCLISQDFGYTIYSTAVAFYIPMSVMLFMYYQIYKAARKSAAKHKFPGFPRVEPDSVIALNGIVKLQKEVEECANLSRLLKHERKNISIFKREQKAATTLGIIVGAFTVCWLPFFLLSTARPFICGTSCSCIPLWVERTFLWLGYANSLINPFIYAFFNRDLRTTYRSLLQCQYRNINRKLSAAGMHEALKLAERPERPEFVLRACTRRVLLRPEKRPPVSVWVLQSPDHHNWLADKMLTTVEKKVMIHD

Consider `Cn1ccnc1SCCN1CCN(c2cccc(C(F)(F)F)c2)CC1` [Example 1, 1-[2-(1-Methyl-1H-imidazol-2-ylsulfanyl)ethyl]-4-(3-trifluoromethylphenyl)piperazine], for which the inhibition (as a rule, the change of the read-out against control, counted positive when it falls) at 0.1 µM at 5HT1A receptor was found to be 87%; on 5HT1D receptor it was 52%; on 5HT7 receptor, 63%.
For the molecule `FC(F)(F)c1cccc(N2CCN(CCSc3nnc(-c4ccncc4)o3)CC2)c1` [Example 3, 1-[2-(5-Pyridin-4-yl-[1,3,4]oxadiazol-2-ylsulfanyl)ethyl]-4-(3-trifluoromethylphenyl)piperazine], the inhibition at 0.1 µM worked out at 92% at 5HT1A receptor, 10% at 5HT1D receptor and 25% at 5HT7 receptor.
The like results for `Cn1ccnc1SCCCN1CCN(c2cccc(Cl)c2)CC1` [Example 8, 1-[3-(1-Methyl-1H-imidazol-2-ylsulfanyl)propyl]-4-(3-chlorophenyl)piperazine] were, in that order, 94%, 50% and 82%.
As to `Clc1cccc(N2CCN(CCCSc3nnc(-c4ccncc4)o3)CC2)c1` [Example 10, 1-[3-(5-Pyridin-4-yl-[1,3,4]oxadiazol-2-ylsulfanyl)propyl]-4-(3-chlorophenyl)piperazine], the values for the inhibition at 0.1 µM on 5HT1A receptor, on 5HT1D receptor and on 5HT7 receptor were 97%, 51% and 8%, respectively. Also, the “latency in CAR (antipsychotic activity)” value in the test on C57 male mice [1] is “statistically significant increase in latency”.
On to `Clc1cccc(N2CCN(CCCSc3nnnn3-c3ccccc3)CC2)c1` [Example 12, 1-[3-(1-Phenyl-1H-tetrazol-5-ylsulfanyl)propyl]-4-(3-chlorophenyl)piperazine], for which the results for the inhibition at 0.1 µM on 5HT1A receptor, on 5HT1D receptor and on 5HT7 receptor were 75%, 6% and 43%, respectively. In addition, the “latency in CAR (memory)” value in the test on C57 male mice [2] was “statistically significant decrease in latency”.
As to `Cn1ccnc1SCCCN1CCN(c2nccc3occc23)CC1` [Example 38, 4-{4-[3-(1-Methyl-1H-imidazol-2-ylsulfanyl)propyl]piperazin-1-yl}furo[3,2-c]pyridine], the inhibition at 0.1 µM at 5HT1A receptor came out at 71%; on 5HT7 receptor, 81%.
As to `c1ccc(-n2nnnc2SCCCN2CCN(c3nccc4occc34)CC2)cc1` [Example 40, 4-{4-[3-(1-Phenyl-1H-tetrazol-5-ylsulfanyl)propyl]piperazin-1-yl}furo[3,2-c]pyridine], the inhibition at 0.1 µM on 5HT1A receptor turned out to be 97%; at 5HT1D receptor, 38%; at 5HT7 receptor it was 67%.
For the molecule `c1cc(-c2nnc(SCCCN3CCN(c4nccc5occc45)CC3)o2)ccn1` [Example 42, 4-{4-[3-(5-Pyridin-4-yl-[1,3,4]oxadiazol-2-sulfanyl)propyl]piperazin-1-yl}furo[3,2-c]pyridine], on 5HT1A receptor, the “Percent inhibition of receptor binding at 100 nM, 5HT1A Receptor Binding” value stood at 96%. The “Percent inhibition of receptor binding at 100 nM, 5HT1D Receptor Binding” value at 5HT1D receptor is 65%. In addition, the “Percent inhibition of receptor binding at 100 nM, 5HT7 Receptor Binding” value on 5HT7 receptor came to 21%.
